PubChem BioAssay AID1918995 (Molecular Pharmacology Branch, DTP, NCI, 2023)
Values joined by “and” are separate entries in the source; they are usually repeats but may differ in a detail not shown here. Equal entries are not always repeated.

Tested on: 324938-238-R-J1-PDC complex spheroid growth, % test/control
Assay: Anticancer human tumor 324938-238-R-J1-PDC patient-derived bladder carcinoma cell line growth inhibition [AhR]
Conditions: for viability, T/C: stronger effect = lower value
Summary of the method: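 Agents were dosed in half-log steps down from roughly clinical Cmax, or from 10 microM where Cmax was unknown, alone and with AhR antagonists. Read-out: percent test/control growth of tumor spheroids containing HUVEC and MSC stromal cells.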
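Also: spheroids exposed to agents for seven days before viability read.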

For CC1(C)CCC(CN2CCN(c3ccc(C(=O)NS(=O)(=O)c4ccc(NCC5CCOCC5)c([N+](=O)[O-])c4)c(Oc4cnc5[nH]ccc5c4)c3)CC2)=C(c2ccc(Cl)cc2)C1 + Cc1cncc(-c2nc(NCCc3c[nH]c4ccccc34)c3ncn(C(C)C)c3n2)c1, the IC50 (curve of first compound, second compound 0.1 µM) was greater than 10 µM, the IC50 (curve of first compound, second compound 0.316 µM) was greater than 10 µM and the IC50 (curve of first compound, second compound 1 µM) was greater than 10 µM. For the same compound, the IC50 (curve of first compound, second compound 3.16 µM) was greater than 10 µM, the IC50 (curve of first compound, second compound 10 µM) was less than 0.0316 µM and the viability, T/C (second compound 0.1 µM, first compound 0.0316 µM) was 108%. For the same compound, the viability, T/C (second compound 0.1 µM, first compound 0.1 µM) was 80.3%, the viability, T/C (second compound 0.1 µM, first compound 0.316 µM) was 109% and the viability, T/C (second compound 0.1 µM, first compound 1 µM) was 93%. For the same compound, the viability, T/C (second compound 0.1 µM, first compound 3.16 µM) was 109%, the viability, T/C (second compound 0.1 µM, first compound 10 µM) was 117% and the viability, T/C (second compound 0.316 µM, first compound 0.0316 µM) was 94.2%. For the same compound, the viability, T/C (second compound 0.316 µM, first compound 0.1 µM) was 96.9%, the viability, T/C (second compound 0.316 µM, first compound 0.316 µM) was 136% and the viability, T/C (second compound 0.316 µM, first compound 1 µM) was 87.7%. The viability, T/C (second compound 0.316 µM, first compound 3.16 µM) was 86.6%, the viability, T/C (second compound 0.316 µM, first compound 10 µM) was 114% and the viability, T/C (second compound 1 µM, first compound 0.0316 µM) was 112%. It also gave a viability, T/C (second compound 1 µM, first compound 0.1 µM) of 123%, a viability, T/C (second compound 1 µM, first compound 0.316 µM) of 131% and a viability, T/C (second compound 1 µM, first compound 1 µM) of 107%. The viability, T/C (second compound 1 µM, first compound 3.16 µM) was 103%, the viability, T/C (second compound 1 µM, first compound 10 µM) was 130% and the viability, T/C (second compound 3.16 µM, first compound 0.0316 µM) was 106%. It also gave a viability, T/C (second compound 3.16 µM, first compound 0.1 µM) of 93.5%, a viability, T/C (second compound 3.16 µM, first compound 0.316 µM) of 115% and a viability, T/C (second compound 3.16 µM, first compound 1 µM) of 102%. For the same compound, the viability, T/C (second compound 3.16 µM, first compound 3.16 µM) was 112%, the viability, T/C (second compound 3.16 µM, first compound 10 µM) was 106% and the viability, T/C (second compound 10 µM, first compound 0.0316 µM) was 13.5%. For the same compound, the viability, T/C (second compound 10 µM, first compound 0.1 µM) was 8.66%, the viability, T/C (second compound 10 µM, first compound 0.316 µM) was 11.9% and the viability, T/C (second compound 10 µM, first compound 1 µM) was 7.88%. For the same compound, the viability, T/C (second compound 10 µM, first compound 3.16 µM) was 9.07% and the viability, T/C (second compound 10 µM, first compound 10 µM) was 12.5%.
With COc1cc(Nc2ncc3c(n2)-c2ccc(Cl)cc2C(c2c(F)cccc2OC)=NC3)ccc1C(=O)O the viability, T/C (compound 0.0316 µM) was 101% and 74% and 71.8%, the viability, T/C (compound 0.1 µM) was 111% and 56% and 46% and the viability, T/C (compound 0.316 µM) was 68.3% and 32.7% and 27.7%. For the same compound, the viability, T/C (compound 1 µM) was 92% and 36% and 28.2%, the viability, T/C (compound 3.16 µM) was 92.5% and 38.2% and 27.3% and the viability, T/C (compound 10 µM) was 75.8% and 39.1% and 32.8%.
With O=C(c1cc(Cc2n[nH]c(=O)c3ccccc23)ccc1F)N1CCN(C(=O)C2CC2)CC1 the viability, T/C (compound 0.0316 µM) was 115% and 100% and 97.8%, the viability, T/C (compound 0.1 µM) was 73.1% and 102% and 96.9% and the viability, T/C (compound 0.316 µM) was 66% and 103% and 82%. The viability, T/C (compound 1 µM) was 86.6% and 110% and 88.1%, the viability, T/C (compound 3.16 µM) was 69.2% and 90.5% and 77.8% and the viability, T/C (compound 10 µM) was 79% and 74.1% and 47.3%. The IC50 (curve of compound) was > 10 µM and 9.37 µM.
In the case of CCN(c1cc(-c2ccc(CN3CCOCC3)cc2)cc(C(=O)NCc2c(C)cc(C)[nH]c2=O)c1C)C1CCOCC1, the viability, T/C (compound 0.00949 µM) is reported as 93.5% and 100% and 111%, the viability, T/C (compound 0.03 µM) is reported as 109% and 106% and 117% and the viability, T/C (compound 0.0949 µM) is reported as 106% (2×) and 107%. For the same compound, the viability, T/C (compound 0.3 µM) was 83% and 100% and 116%, the viability, T/C (compound 0.949 µM) was 85% and 104% and 113% and the viability, T/C (compound 3 µM) was 124% and 97.5% and 105%. The IC50 (curve of compound) was greater than 3 µM.
